The text below walks through data of ChEMBL document CHEMBL1153503, “Design and synthesis of novel nitrogen-containing polyhydroxylated aromatics as HIV-1 integrase inhibitors from caffeic acid phenethyl ester” (Bioorg Med Chem Lett, 2009).

By IC50 is commonly meant the concentration at which inhibition is half-maximal.

Test [1] has as its target T1, Human immunodeficiency virus type 1 integrase (Human immunodeficiency virus 1, UniProt Q7ZJM1).
Description: Inhibition of HIV1 integrase assessed as inhibition of 3'-end processing by 32P-labelled assay
Test [2] concerns the target T1, Human immunodeficiency virus type 1 integrase. Put plainly: Inhibition of HIV1 integrase assessed as inhibition of strand transfer activity by 32P-labelled assay.
Test [3] addresses Human immunodeficiency virus type 1 integrase (Human immunodeficiency virus 1) (UniProt Q7ZJM1). Put plainly: Selectivity index, ratio of IC50 for HIV1 integrase 3'-end processing to IC50 for HIV1 integrase strand transfer activity.

Where only a bound is given, the exact number is not on record here.

T1 sequence (Q7ZJM1 whole entry): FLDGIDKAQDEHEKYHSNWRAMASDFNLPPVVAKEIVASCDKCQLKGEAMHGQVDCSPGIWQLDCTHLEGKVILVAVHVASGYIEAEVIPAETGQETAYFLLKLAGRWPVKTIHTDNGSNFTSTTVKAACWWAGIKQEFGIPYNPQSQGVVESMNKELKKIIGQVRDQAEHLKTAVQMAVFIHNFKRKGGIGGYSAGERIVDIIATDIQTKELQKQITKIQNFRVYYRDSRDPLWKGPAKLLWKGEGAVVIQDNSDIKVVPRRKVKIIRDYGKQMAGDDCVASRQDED
Sequence of Human immunodeficiency virus type 1 integrase (Human immunodeficiency virus 1) (Q7ZJM1 as listed by the source): as the sequence (Q7ZJM1 whole entry) above

Turning to `O=C(Nc1ccc(S(=O)(=O)Nc2ccc(Cl)c(Cl)c2)cc1)c1cc(O)c(O)c(O)c1`, the IC50 was 5 µM in test [1] and 1.7 µM in test [2].

For `COc1ccc(NS(=O)(=O)c2ccc(NC(=O)c3cc(O)c(O)c(O)c3)cc2)cc1`, the IC50 in test [1] was 5 µM; in test [2] it was 4.5 µM.

In the case of `NS(=O)(=O)c1ccc(NC(=O)c2cc(O)c(O)c(O)c2)cc1`, the IC50 amounted to 22 µM in test [1] and 2 µM in test [2]. For the same compound, in test [3], the Ratio IC50 is 11.

Consider `O=C(Nc1ccc(S(=O)(=O)NCc2ccc(F)cc2)cc1)c1cc(O)c(O)c(O)c1`, for which the figures for the IC50 in test [1] and in test [2] were 7 µM and 2 µM, respectively.

As to `Cc1ccc(NS(=O)(=O)c2ccc(NC(=O)c3cc(O)c(O)c(O)c3)cc2)cc1C`, the IC50 in test [1] and in test [2] was 8 µM in each case.

In the case of `O=C(Nc1ccc(S(=O)(=O)Nc2ccc([N+](=O)[O-])cc2)cc1)c1cc(O)c(O)c(O)c1`, the IC50 turned out to be 4 µM in test [1] and 3 µM in test [2].

`O=C(Nc1ccc(S(=O)(=O)Nc2ccc(F)c(F)c2)cc1)c1cc(O)c(O)c(O)c1`: the concentration for half-maximal inhibition (IC50) in test [1] came to 4 µM; in test [2] it was 1.5 µM.

With `O=C(Nc1ccc(S(=O)(=O)Nc2ccccc2)cc1)c1ccc(O)c(O)c1`, the figures for the IC50 in test [1] and in test [2] were 100 µM and 50 µM, respectively.

With `O=C(Nc1ccc(S(=O)(=O)NCc2ccc(Cl)cc2)cc1)c1cc(O)c(O)c(O)c1`, the IC50 in test [1] was determined as 5 µM; in test [2], 2 µM.

With `O=C(Nc1ccc(S(=O)(=O)Nc2ccc(F)c(F)c2F)cc1)c1cc(O)c(O)c(O)c1`, the IC50 was determined as 7 µM in test [1] and 3 µM in test [2].

Turning to `CCCCc1ccc(NS(=O)(=O)c2ccc(NC(=O)c3cc(O)c(O)c(O)c3)cc2)cc1`, the IC50 in test [1] worked out at 3 µM; in test [2] it was 2.5 µM.

In the case of `O=C(Nc1ccc(S(=O)(=O)Nc2ccc(F)cc2)cc1)c1cc(O)c(O)c(O)c1`, the values for the IC50 in test [1] and in test [2] were 7 µM and 0.9 µM, respectively.

For `O=C(Nc1ccc(S(=O)(=O)Nc2ccc(Br)cc2)cc1)c1cc(O)c(O)c(O)c1`, the IC50 amounted to 3 µM in test [1] and 0.7 µM in test [2].

As for `Cc1cc(C)cc(NS(=O)(=O)c2ccc(NC(=O)c3cc(O)c(O)c(O)c3)cc2)c1`, the concentration for half-maximal inhibition (IC50) in test [1] was 8 µM; in test [2], 2.5 µM.

With `O=C(Nc1ccc(S(=O)(=O)Nc2ccc(Cl)cc2)cc1)c1cc(O)c(O)c(O)c1`, the IC50 was 6 µM in test [1] and 2 µM in test [2].

With `O=C(Nc1ccc(S(=O)(=O)Nc2ccccc2)cc1)c1cc(O)c(O)c(O)c1`, the IC50 in test [1] is 7 µM; in test [2] it was 1.5 µM.

As to `Cc1ccccc1NS(=O)(=O)c1ccc(NC(=O)c2cc(O)c(O)c(O)c2)cc1`, the IC50 in test [1] turned out to be 7 µM; in test [2], 2 µM.

Regarding `CC(=O)Oc1cc(C(=O)Nc2ccc(S(=O)(=O)Nc3ccccc3C)cc2)cc(OC(C)=O)c1OC(C)=O`, the IC50 in test [1] is over 10 µM; in test [2], 1.6 µM.

Turning to `O=C(Nc1ccc(S(=O)(=O)Nc2cccc(Br)c2)cc1)c1cc(O)c(O)c(O)c1`, the IC50 stood at 2 µM in test [1] and 0.7 µM in test [2].

Consider `CCOc1ccc(NS(=O)(=O)c2ccc(NC(=O)c3cc(O)c(O)c(O)c3)cc2)cc1`, for which the IC50 in test [1] turned out to be 6 µM; in test [2], 1.3 µM.

Consider `O=C(/C=C/c1ccc(O)c(O)c1)Nc1ccc(S(=O)(=O)Nc2ccccc2)cc1`, for which the IC50 in test [1] was 16 µM; in test [2], 12 µM.

On to `CC(=O)Oc1cc(C(=O)Nc2ccc(S(=O)(=O)Nc3ccccc3)cc2)cc(OC(C)=O)c1OC(C)=O`, for which the concentration for half-maximal inhibition (IC50) in test [1] was 8 µM; in test [2], 1.6 µM.
